Measurements from patent US9365523B2, “Imidazolyl amide compounds and uses related thereto” (priority 2011, dated 2016).

These compounds were tested on MeV-Alaska (assay: Antiviral activity of compound analogs against MeV-Alaska (tables 1-5)). Settings: Measles morbillivirus; Table 5.
Assay type: cell-based, measles virus

`CCOC(=O)c1ccc2[nH]c(SC(C)C(=O)Nc3ccc(C)cc3Cl)nc2c1` (stereo not drawn) [Compound 126] and `CCOC(=O)c1ccc2[nH]c(SC(C)C(=O)Nc3ncc(C)cc3Cl)nc2c1` (stereo not drawn) [Compound 164] cannot be ordered by EC50: > 75000 nM for the first, > 75000 nM for the second.

First: COc1ccc(-n2c(SC(C)C(=O)N(C)c3ccc(Cl)cc3Cl)nc3ccccc32)cc1 (stereo not drawn) [Compound 149]
Second: CCC(Sc1nc2ccccc2n1-c1ccc(OC)cc1)C(=O)Nc1ncc(Cl)cc1Cl (stereo not drawn) [Compound 131]
The EC50 of the first is higher: > 75000 nM for the first, 12200 nM for the second. The second is the more potent here.

Compared with `Cc1ccc(NC(=O)C(C)Sc2nc3cc(C)c(C)cc3n2Cc2ccc(F)cc2)c(Cl)c1` (stereo not drawn) [Compound 129], `Cc1ccc(NC(=O)CSc2nc3ccc(Br)cc3n2Cc2ccc(F)cc2)c(Cl)c1` [Compound 169] is higher in EC50: 2100 nM for the first, > 75000 nM for the second.

`COc1ccc(-n2c(CCC(=O)Nc3ccc(C)cc3Cl)nc3ccccc32)cc1` [Compound 159] and `COc1ccc(Cn2c(CCC(=O)Nc3ccc(C)cc3Cl)nc3ccccc32)cc1` [Compound 137] cannot be ordered by EC50: > 150000 nM for the first, > 75000 nM for the second.

`Cc1ccc(NC(=O)C(C)Sc2nc3ccccc3s2)c(Cl)c1` (stereo not drawn) [Compound 130] and `C#CCn1c(SC(C)C(=O)Nc2ccc(C)cc2Cl)nc(-c2ccccc2)c1-c1ccccc1` (stereo not drawn) [Compound 153] cannot be ordered by EC50: > 75000 nM for the first, > 75000 nM for the second.

First: Cc1ccc(NC(=O)/C=C\c2nc3ccccc3n2-c2ccccc2)c(Cl)c1 [Compound 138]
Second: Cc1ccc(NC(=O)CSc2nc3cccnc3n2-c2ccccc2)c(Cl)c1 [Compound 147]
The EC50 of the first is higher: > 50000 nM for the first, 16000 nM for the second. The second is the more potent here.

Compared with `Cc1cccc(-n2c(SC/C=C/c3ccccc3)nc3ccccc32)c1` [Compound 166], `O=C(CSc1nc2ccccc2n1-c1ccc(F)cc1)Nc1ncc(Cl)cc1Cl` [Compound 156] is lower in EC50: > 10000 nM for the first, 1800 nM for the second. The second is the more potent here.

`Cc1ccc(NC(=O)C(C)Sc2nc(-c3ccccc3)c(-c3ccccc3)n2Cc2ccc(F)cc2)c(Cl)c1` (stereo not drawn) [Compound 128] and `Cc1ccc(NC(=O)CSc2nc(-c3ccccc3)c(-c3ccccc3)[nH]2)c(Cl)c1` [Compound 142] cannot be ordered by EC50: > 75000 nM for the first, > 75000 nM for the second.

`CCOC(=O)c1ccc2c(c1)nc(SC(C)C(=O)N(Cc1ccc(OC)cc1)c1ncc(Cl)cc1Cl)n2Cc1ccc(OC)cc1` (stereo not drawn) [Compound 134] and `Cc1cc2nc(SC(C)C(=O)N(Cc3ccc(F)cc3)c3ncc(Cl)cc3Cl)n(Cc3ccc(F)cc3)c2cc1C` (stereo not drawn) [Compound 157] cannot be ordered by EC50: > 75000 nM for the first, > 75000 nM for the second.

Going from `Cc1cc2nc(SC(C)C(=O)Nc3ncc(Cl)cc3Cl)[nH]c2cc1C` (stereo not drawn) [Compound 133] to `COc1ccc(-n2c([S+]([O-])C(C)C(=O)Nc3ccc(C)cc3Cl)nc3ccccc32)cc1` (stereo not drawn) [Compound 125], the EC50 falls from > 75000 nM to 1800 nM. The second is the more potent here.

`COc1ccc(-n2c(S(=O)(=O)C(C)C(=O)Nc3ccccc3)nc3ccccc32)cc1` (stereo not drawn) [Compound 139] and `COc1ccc(-n2c(SC(C)C(=O)N3CCCCC3)nc3ccccc32)cc1` (stereo not drawn) [Compound 124] cannot be ordered by EC50: > 75000 nM for the first, > 75000 nM for the second.

For `Cc1ccc(-n2c(SC(C)(C)C(=O)Nc3ccc(C)cc3Cl)nc3ccccc32)cc1` [Compound 145], the EC50 was > 75000 nM.

Same assay, conditions: Table 1

`COc1ccc(-n2c(SC(C)C(=O)Nc3cccnc3)nc3ccccc32)cc1` (stereo not drawn) [Compound 23] and `COc1ccc(-n2c(SC(C)C(=O)Nc3cccc(N)c3)nc3ccccc32)cc1` (stereo not drawn) [Compound 51] are within 1.5-fold of each other in EC50: 8400 nM for the first, 7000 nM for the second.

First: COc1ccc(-n2c(SC(C)C(=O)Nc3ccc(C)cn3)nc3ccccc32)cc1 (stereo not drawn) [Compound 24]
Second: COc1ccc(-n2c(SC(C)C(=O)Nc3ccc(Cl)cn3)nc3ccccc32)cc1 (stereo not drawn) [Compound 38]
The EC50 of the first is 23-fold lower: 500 nM for the first, 11500 nM for the second. The first is the more potent here.

First: COc1ccc(-n2c(SC(C)C(=O)Nc3cc(C)on3)nc3ccccc32)cc1 (stereo not drawn) [Compound 55]
Second: COc1ccc(-n2c(SC(C)C(=O)Nc3cc(C)nn3C)nc3ccccc32)cc1 (stereo not drawn) [Compound 18]
The EC50 of the first is 1.8-fold lower: 490 nM for the first, 900 nM for the second.

Compared with `COc1ccc(-n2c(SC(C)C(=O)Nc3cc(Cl)nc(Cl)c3)nc3ccccc32)cc1` (stereo not drawn) [Compound 22], `COc1ccc(-n2c(SC(C)C(=O)Nc3ccc(Cl)c(Cl)c3)nc3ccccc32)cc1` (stereo not drawn) [Compound 48] is lower in EC50: > 75000 nM for the first, 7300 nM for the second.

First: COc1ccc(-n2c(SC(C)C(=O)Nc3nc(C)c(Br)cc3Br)nc3ccccc32)cc1 (stereo not drawn) [Compound 41]
Second: COc1ccc(-n2c(SC(C)C(=O)Nc3nc(C)c(Cl)cc3Cl)nc3ccccc32)cc1 (stereo not drawn) [Compound 43]
The EC50 of the first is 1.7-fold higher: 500 nM for the first, 300 nM for the second.

Going from `COc1ccc(-n2c(SC(C)C(=O)Nc3c(Cl)cccc3Cl)nc3ccccc32)cc1` (stereo not drawn) [Compound 28] to `COc1ccc(-n2c(SC(C)C(=O)Nc3c(C)cccc3Cl)nc3ccccc32)cc1` (stereo not drawn) [Compound 39], the EC50 rises from 2000 nM to 3900 nM (1.9-fold).

Going from `COc1ccc(-n2c(SC(C)C(=O)Nc3ccc(Cl)cc3C)nc3ccccc32)cc1` (stereo not drawn) [Compound 20] to `COc1ccc(-n2c(SC(C)C(=O)Nc3ccc(N)cc3C)nc3ccccc32)cc1` (stereo not drawn) [Compound 52], the EC50 rises from 1400 nM to > 9300 nM.

`COc1ccc(-n2c(SC(C)C(=O)Nc3ncc(C(F)(F)F)cc3Cl)nc3ccccc32)cc1` (stereo not drawn) [Compound 3] and `COc1ccc(-n2c(SC(C)C(=O)Nc3ccc(Cl)cc3Cl)nc3ccccc32)cc1` (stereo not drawn) [Compound 12] are the same in EC50: 400 nM for the first, 400 nM for the second.

Compared with `COc1ccc(-n2c(SC(C)C(=O)Nc3ccc([N+](=O)[O-])cc3C)nc3ccccc32)cc1` (stereo not drawn) [Compound 32], `COc1ccc(-n2c(SC(C)C(=O)Nc3ccc(C)c(N)c3)nc3ccccc32)cc1` (stereo not drawn) [Compound 16] is lower in EC50: > 9300 nM for the first, 2300 nM for the second. The second is the more potent here.

Compared with `COc1ccc(-n2c(SC(C)C(=O)Nc3cc(Br)ccc3Br)nc3ccccc32)cc1` (stereo not drawn) [Compound 2], `COc1ccc(-n2c(SC(C)C(=O)Nc3cc(Cl)ccc3Cl)nc3ccccc32)cc1` (stereo not drawn) [Compound 46] is 3.4-fold lower in EC50: 1700 nM for the first, 500 nM for the second. The second is the more potent here.

First: COc1ccc(-n2c(SC(C)C(=O)Nc3nc(C)nc(C)c3Cl)nc3ccccc32)cc1 (stereo not drawn) [Compound 30]
Second: COc1ccc(-n2c(SC(C)C(=O)Nc3nc(C)cs3)nc3ccccc32)cc1 (stereo not drawn) [Compound 35]
The EC50 of the first is higher: > 75000 nM for the first, 3600 nM for the second. The second is the more potent here.

First: COc1ccc(-n2c(SC(C)C(=O)Nc3nccs3)nc3ccccc32)cc1 (stereo not drawn) [Compound 36]
Second: COc1ccc(-n2c(SC(C)C(=O)Nc3nccc(C)n3)nc3ccccc32)cc1 (stereo not drawn) [Compound 11]
The EC50 of the first is 6.7-fold higher: 4000 nM for the first, 600 nM for the second. The second is the more potent here.

First: COc1ccc(-n2c(SC(C)C(=O)Nc3ccc(C#N)cn3)nc3ccccc32)cc1 (stereo not drawn) [Compound 26]
Second: COc1ccc(-n2c(SC(C)C(=O)Nc3ccc(C)cc3)nc3ccccc32)cc1 (stereo not drawn) [Compound 49]
The EC50 of the first is higher: > 75000 nM for the first, 700 nM for the second. The second is the more potent here.

For `COc1ccc(-n2c(SC(C)C(=O)NC3CCCCC3)nc3ccccc32)cc1` (stereo not drawn) [Compound 9], the EC50 was > 75000 nM.

Same assay, conditions: Table 2

Going from `Cc1cccc(-n2c(SC(C)C(=O)Nc3ccc(C)cc3Cl)nc3ccccc32)c1` (stereo not drawn) [Compound 75] to `Cc1ccc(NC(=O)C(C)Sc2nc3ccccc3n2-c2cccc(CO)c2)c(Cl)c1` (stereo not drawn) [Compound 80], the EC50 rises from 100 nM to 700 nM (7-fold). The first is the more potent here.

Going from `Cc1ccc(NC(=O)C(C)Sc2nc3ccccc3n2-c2ccc(CN3CCN(C)CC3)cc2)c(Cl)c1` (stereo not drawn) [Compound 63] to `Cc1ccc(NC(=O)C(C)Sc2nc3ccccc3n2-c2ccc(N3CCN(C)CC3)cc2)c(Cl)c1` (stereo not drawn) [Compound 70], the EC50 falls from 4900 nM to 2000 nM (2.5-fold).

Going from `COc1cc(OC)cc(-n2c(SC(C)C(=O)Nc3ccc(C)cc3Cl)nc3ccccc32)c1` (stereo not drawn) [Compound 87] to `COc1ccc(-n2c(SC(C)C(=O)Nc3ccc(C)cc3Cl)nc3ccccc32)cc1` (stereo not drawn) [Compound 86], the EC50 falls from 400 nM to 170 nM (2.4-fold). The second is the more potent here.

Going from `Cc1ccc(NC(=O)C(C)Sc2nc3ccccc3n2-c2ccc(OCC#N)cc2)c(Cl)c1` (stereo not drawn) [Compound 57] to `Cc1ccc(NC(=O)C(C)Sc2nc3ccccc3n2-c2ccc(OCC(=O)O)cc2)c(Cl)c1` (stereo not drawn) [Compound 68], the EC50 rises from 700 nM to > 9300 nM.

Compared with `Cc1ccc(NC(=O)C(C)Sc2nc3ccccc3n2-c2ccc(O)cc2)c(Cl)c1` (stereo not drawn) [Compound 76], `Cc1ccc(NC(=O)C(C)Sc2nc3ccccc3n2-c2ccc(N)cc2)c(Cl)c1` (stereo not drawn) [Compound 78] is 2.9-fold lower in EC50: 3800 nM for the first, 1330 nM for the second.

First: Cc1ccc(NC(=O)C(C)Sc2nc3ccccc3n2-c2ccc(CC=O)cc2)c(Cl)c1 (stereo not drawn) [Compound 62]
Second: Cc1ccc(NC(=O)C(C)Sc2nc3ccccc3n2-c2ccc(CO)cc2)c(Cl)c1 (stereo not drawn) [Compound 81]
The EC50 of the first is 2.2-fold higher: 8500 nM for the first, 3910 nM for the second.

Compared with `Cc1ccc(NC(=O)C(C)Sc2nc3ccccc3n2-c2ccc(CN(C)C)cc2)c(Cl)c1` (stereo not drawn) [Compound 98], `Cc1ccc(NC(=O)C(C)Sc2nc3ccccc3n2-c2ccc(CCO)cc2)c(Cl)c1` (stereo not drawn) [Compound 64] is 1.8-fold higher in EC50: 1400 nM for the first, 2500 nM for the second. The first is the more potent here.

Compared with `Cc1ccc(NC(=O)C(C)Sc2nc3ccccc3n2-c2ccccc2)c(Cl)c1` (stereo not drawn) [Compound 72], `Cc1ccc(NC(=O)C(C)Sc2nc3ccccc3n2Cc2ccccc2)c(Cl)c1` (stereo not drawn) [Compound 74] is 5.6-fold higher in EC50: 90 nM for the first, 500 nM for the second. The first is the more potent here.

First: Cc1ccc(NC(=O)C(C)Sc2nc3ccccc3n2S(=O)(=O)c2ccccc2)c(Cl)c1 (stereo not drawn) [Compound 90]
Second: Cc1ccc(NC(=O)C(C)Sc2nc3ccccc3n2-c2ccc(N=[N+]=[N-])cc2)c(Cl)c1 (stereo not drawn) [Compound 95]
The EC50 of the first is 7.8-fold lower: 40 nM for the first, 310 nM for the second.

Compared with `Cc1ccc(NC(=O)C(C)Sc2nc3ccccc3n2C2CCN(C)CC2)c(Cl)c1` (stereo not drawn) [Compound 94], `Cc1ccc(NC(=O)C(C)Sc2nc3ccccc3n2C2CCNCC2)c(Cl)c1` (stereo not drawn) [Compound 92] is higher in EC50: 1500 nM for the first, > 75000 nM for the second.

Going from `COC(=O)COc1ccc(-n2c(SC(C)C(=O)Nc3ccc(C)cc3Cl)nc3ccccc32)cc1` (stereo not drawn) [Compound 69] to `Cc1ccc(NC(=O)C(C)Sc2nc3ccccc3n2-c2ccc(N(C)CCN(C)C)cc2)c(Cl)c1` (stereo not drawn) [Compound 60], the EC50 falls from > 9300 nM to 2900 nM. The second is the more potent here.

`Cc1ccc(NC(=O)C(C)Sc2nc3ccccc3n2-c2ccc(N3CCOCC3)cc2)c(Cl)c1` (stereo not drawn) [Compound 84] and `Cc1ccc(NC(=O)C(C)Sc2nc3ccccc3n2-c2ccc(CN3CCOCC3)cc2)c(Cl)c1` (stereo not drawn) [Compound 56] are within 1.5-fold of each other in EC50: 300 nM for the first, 320 nM for the second.

`Cc1ccc(NC(=O)C(C)Sc2nc3ccccc3n2-c2ccccc2CN2CCN(C)CC2)c(Cl)c1` (stereo not drawn) [Compound 67] was tested, and the EC50 was 180 nM.

Same assay, conditions: Table 3

Going from `CC(Sc1nc2ccccc2n1Cc1ccccc1)C(=O)Nc1ncc(Cl)cc1Cl` (stereo not drawn) [Compound 111] to `COc1ccc(Cn2c(SC(C)C(=O)Nc3ncc(C)cc3Cl)nc3ccccc32)cc1` (stereo not drawn) [Compound 107], the EC50 falls from 4900 nM to 800 nM (6.1-fold). The second is the more potent here.

Going from `CCOc1ccc(-n2c(SC(C)C(=O)Nc3ccc([N+](=O)[O-])cc3C)nc3ccccc32)cc1` (stereo not drawn) [Compound 110] to `CCOc1ccc(-n2c(SC(C)C(=O)Nc3cc(C)cc(C)n3)nc3ccccc32)cc1` (stereo not drawn) [Compound 115], the EC50 falls from > 9300 nM to 1500 nM.

`Cc1cnc(NC(=O)C(C)Sc2nc3ccccc3n2-c2ccc(F)cc2)c(Cl)c1` (stereo not drawn) [Compound 116] and `COc1cc(OC)cc(-n2c(SC(C)C(=O)Nc3ncc(C)cc3Cl)nc3ccccc32)c1` (stereo not drawn) [Compound 118] are the same in EC50: 800 nM for the first, 800 nM for the second.
